Experimental data published in article PMC10428205, “Cytotoxicity of Ruthenium(II) Arene Complexes Containing Functionalized Ferrocenyl β-Diketonate Ligands” (Organometallics, 2023).

Tests used:
[1] = tested on: MIA PaCa-2; test: Chemosensitivity under hypoxic conditions (0.1% O2, 96 h MTT); type: cell-based, human
Method: LogP = Log ( [C]final ) Eqn1
96 h Chemosensitivity Studies
In vitro chemosensitivity tests were performed at both the University of Huddersfield and the Institute of Cancer Therapeutics, Bradford, in a sterile Class II Biological Safety Cabinet fitted with a HEPA filtered laminar airflow.
Cellular assays were conducted against human pancreatic carcinoma (MIA PaCa-2), human colorectal carcinoma p53-wildtype (HCT116 p53+/+), and human non-cancerous epithelial retinal cells (ARPE-19). The ARPE-19 cells were obtained from the American Type Culture Collection and provided by the University of Huddersfield. All cell lines were routinely maintained as monolayer cultures in appropriate complete medium and maintained in either T-25 or T-75 flasks at 37 °C and 5% CO2. MIA PaCa-2 and ARPE-19 cells were cultured in high glucose DMEM-F12 medium containing 10% foetal calf serum, and HCT116 p53+/+ was cultured in RPMI 1640 supplemented with 10% foetal calf serum. All medium was supplemented with sodium pyruvate (1 mM) and L-glutamine (2 mM), and prior to chemosensitivity studies, cell monolayers were passaged using Trypsin-EDTA and diluted to a concentration of 1 x 10^4 cells/mL. All assays were conducted using 96-well plates, in which […] of the 1 x 10^4 cells/mL cell suspension was added to each well and incubated for 24 h at 37 °C and 5% CO2. […] After mixing well, the absorbance of each well was measured at 540 nm using a ThermoFisher Multiskan FC spectrophotometer microplate reader. Using the blank and 100% cell controls, the % cell viability was determined [(abs. of compound containing wells – abs. media wells)/(abs. 100% cell suspension well control)] and from this the % cell death (100%- % cell viability) was calculated. On a logarithmic scale, the percentage cell death was plotted against the concentration of compound, and from this the half maximal inhibitory concentration (IC50) value was determined. […]

[2] = tested on: MIA PaCa-2; test: Comet assay of cellular DNA damage; type: cell-based, human; conditions: MIA PaCa-2, 48 h incubation, varying concentration
Method: Complexes 2, 4, and 7 were chosen due to their range in cytotoxicity, where complex 2 is moderately active and complexes 4 and 7 have the highest activities. Their ability to induce single-strand breakage (SSB) of DNA with varying concentrations of compound was studied after incubation with MIA PaCa-2 cells for 48 h. After harvesting the cells, quantification of the levels of SSB of DNA were assessed by using the alkaline comet assay.
Samples were then taken up in Optima high purity nitric acid, diluted to 10 mL with 1mL rhodium internal standard and 9 mL 18.2 Ultrapure water. The elemental contents of the samples were determined using ICP-MS-QQQ Thermo TQ spectrometer. Measurement of iron mass 56 and ruthenium isotope mass 100 was conducted by comparing solutions of known concentration and intensities. A series of standard calibration curves allows the concentration of each element to be determined. […]
The media -free wells were then trypsinized (1 mL) for 3 -5 minutes and then neutralized with high glucose DMEM (1 mL), these were all added to the centrifuge t ube and centrifuged at 1500 rpm for 3 minutes. […] Staining solution (150 mL) was added to each slide and the Comets analysed using Comet assay III software. A minimum of 50 different comets were scored and the computer outputs an average on head and tail intensities and tail moments. […]

IC50 ([1]; MIA PaCa-2, 0.1% O2, 96 h MTT): > 50 µM
Structure (SMILES): [NH2][Pt]([NH2])([Cl])[Cl] [CDDP, cisplatin, reference compound]
fold loss of activity from normoxic to hypoxic conditions ([1]; MIA PaCa-2, 21% vs 0.1% O2): > 14 fold | single-strand breakage (SSB) of DNA [2]: dose-dependent SSB similar to that of complex 4
